Experimental data from patent US20230312605A1, “PYRROLO[2,1-F][1,2,4]TRIAZINES AND PREPARATION AND USES THEREOF” (BioSplice Therapeutics, Inc., priority 2021, published 2023).

Molecular target: recombinant DYRK1A kinase (Homo sapiens (Human), UniProt Q13627)
Assay: DYRK1A kinase assay (Ser/Thr 18 peptide Z-lyte FRET assay)
Format: biochemical
Conditions: recombinant DYRK1A 0.25 µg/mL, ATP 15 µM, Ser/Thr peptide 18 4 µM, one hour at room temperature; table head prints EC50, method says IC50
Method: Representative compounds were screened using the assay procedure for DYRK1A kinase activity as described below.
Each compound was dissolved in DMSO as a 10 mM stock and used to prepare compound source plates. Serial dilution (1:3, 11-point dose-response curves from 10 µM to 0.00016 µM) and compound transfer was performed using the ECHO 550 (Labcyte, Sunnyvale, CA) into 1536-well black-walled round bottom plates (Corning).
The DYRK1A kinase assay was run using the Ser/Thr 18 peptide Z-lyte assay kit according to manufacturer’s instructions (Life Technologies- a Division of Thermo-Fisher). This is a non-radioactive assay using fluorescence resonance energy transfer (FRET) between coumarin and fluorescein to detect kinase activity which is represented as a ratio of coumarin emission/fluorescein emission.
Briefly, recombinant DYRK1A kinase, ATP and Ser/Thr peptide 18 were prepared in 1X Kinase buffer to final concentrations of 0.25 µg/mL, 15 µM, and 4 µM respectively. The mixture was allowed to incubate with the representative compounds for one hour at room temperature. All reactions were performed in duplicate. Unphosphorylated (“0% Control”) and phosphorylated (“100% control”) forms of Ser/Thr 18 served as control reactions. Additionally, an 11-point dose-response curve of Staurosporine (1uM top) was run to serve as a positive compound control.
After incubation, Development Reagent A was diluted in Development Buffer then added to the reaction and allowed to further incubate for one hour at room temperature. The plate was read at Ex 400 Em 455 to detect the coumarin signal and Ex 400 Em 520 to measure the signal (EnVision Multilabel Plate Reader, PerkinElmer).
The Emission ratio (Em) was calculated as a ratio of the coumarin (C) emission signal (at 445 nm)/Fluorescein (F) emission signal (at 520 nm). The percent phosphorylation was then calculated using the following formula: [1 — ((Em ratio X F100%)—C100%)/ ((C0%—C100%) + (Em ratio X (F100% - F0%)))]. Dose-response curves were generated, and inhibitory concentration (IC50) values were calculated using non-linear regression curve fit in the Dotmatics’ Studies Software (Bishops Stortford, UK).

`Cc1nc2ccc(-c3ccn4nc(NC5CCOCC5)ncc34)nc2n1CC(F)F` [Compound 1132, 5-(3-(2,2-Difluoroethyl)-2-methyl-3H-imidazo[4,5-b]pyridin-5-yl)-N-(tetrahydro-2H-pyran-4-yl)pyrrolo[2,1-f][1,2,4]triazin-2-amine] was tested. Which EC50 did it give?
The EC50 was 5 nM.

`CCO[C@H]1C[C@@H](Nc2ncc3c(-c4cnc5ncccc5c4)ccn3n2)C1` [Compound 1520, N-(cis-3-Ethoxycyclobutyl)-5-(1,8-naphthyridin-3-yl)pyrrolo[2,1-f][1,2,4] triazin-2-amine] was tested. Which EC50 did it give?
The EC50 was 963 nM.

With `Cc1nc2ccc(-c3ccn4nc(NCC(C)(C)F)ncc34)nc2n1C` [Compound 855, 5-(2,3-Dimethyl-3H-imidazo[4,5-b]pyridin-5-yl)-N-(2-fluoro-2-methylpropyl)pyrrolo[2,1-f][1,2,4]triazin-2-amine] as the compound, how does the EC50 read?
Its EC50 is 43 nM.

How did the EC50 turn out when `CC(C)CNc1ncc2c(-c3ccc4nccn4c3)ccn2n1` [Compound 2, 5-(Imidazo[1,2-a]pyridin-6-yl)-N-isobutylpyrrolo[2,1-f][1,2,4]triazin-2-amine] was run?
The EC50 was 41 nM.

For `CO[C@H]1C[C@H](Nc2ncc3c(-c4ccc5nccnc5c4)ccn3n2)C1` [Compound 1376, N-(trans-3-Methoxycyclobutyl)-5-(quinoxalin-6-yl)pyrrolo[2,1-f][1,2,4] triazin-2-amine], which EC50 is on record?
Its EC50 is 14 nM.

Which EC50 does the source give for `COCCO[C@H]1CC[C@@H](Nc2ncc3c(-c4ccc5nc(C)n(CC(F)F)c5n4)ccn3n2)CC1` [Compound 1117, 5-(3-(2,2-Difluoroethyl)-2-methyl-3H-imidazo[4,5-b]pyridin-5-yl)-N-(cis-4-(2-methoxyethoxy)cyclohexyl)pyrrolo[2,1-f][1,2,4]triazin-2-amine] here?
The EC50 was 4 nM.

Which EC50 does the source give for `CCO[C@H]1CC[C@@H](Nc2ncc3c(-c4cnc5ncccc5c4)ccn3n2)CC1` [Compound 1541] here?
The EC50 was 3 nM.

How did the EC50 turn out when `Cc1nc2ccc(-c3ccn4nc(N[C@H]5CCN(C)C[C@@H]5F)ncc34)nc2n1CC(F)F` [Compound 1855, 5-(3-(2,2-Difluoroethyl)-2-methyl-3H-imidazo[4,5-b]pyridin-5-yl)-N-((3S,4S)-3-fluoro-1-methylpiperidin-4-yl)pyrrolo[2,1-f][1,2,4]triazin-2-amine] was run?
Its EC50 is 6 nM.

`Cc1nc2ccc(-c3ccn4nc(N[C@H]5CC[C@@H](OCCO)CC5)ncc34)nc2n1CC(F)F` [Compound 1839, 2-((cis-4-((5-(3-(2,2-difluoroethyl)-2-methyl-3H-imidazo[4,5-b]pyridin-5-yl)pyrrolo[2,1-f][1,2,4]triazin-2-yl)amino)cyclohexyl)oxy)ethan-1-ol] was tested. Which EC50 did it give?
Its EC50 is 4 nM.

Which EC50 does the source give for `CN1CC2(CC(Nc3ncc4c(-c5cnc6nccn6c5)ccn4n3)C2)C1` [Compound 283, 5-(Imidazo[1,2-a]pyrimidin-6-yl)-N-(2-methyl-2-azaspiro[3.3]heptan-6-yl)pyrrolo[2,1-f][1,2,4]triazin-2-amine] here?
Its EC50 is 20 nM.

`Cc1nc2ccc(-c3ccn4nc(NC5CCN(CCO)CC5)ncc34)nc2n1CC(F)F` [Compound 1852, 2-(4-((5-(3-(2,2-Difluoroethyl)-2-methyl-3H-imidazo[4,5-b]pyridin-5-yl)pyrrolo[2,1-f][1,2,4]triazin-2-yl)amino)piperidin-1-yl)ethan-1-ol] was tested. Which EC50 did it give?
The EC50 was 9 nM.

How did the EC50 turn out when `Cc1nc2ccc(-c3ccn4nc(N[C@H]5CC[C@@](C)(O)CC5)ncc34)nc2n1CC(C)(C)C#N` [Compound 1869, 3-(5-(2-((cis-4-Hydroxy-4-methylcyclohexyl)amino)pyrrolo[2,1-f][1,2,4]triazin-5-yl)-2-methyl-3H-imidazo[4,5-b]pyridin-3-yl)-2,2-dimethylpropanenitrile] was run?
Its EC50 is 16 nM.

`CC(=O)N[C@]1(C)C[C@@H](Nc2ncc3c(-c4ccc5nccnc5c4)ccn3n2)C1` [Compound 1981, N-((1r,3r)-1-methyl-3-((5-(quinoxalin-6-yl)pyrrolo[2,1-f][1,2,4]triazin-2-yl)amino)cyclobutyl)acetamide] was tested. Which EC50 did it give?
Its EC50 is 2 nM.

How did the EC50 turn out when `Cc1nc2ccc(-c3ccn4nc(N[C@H]5CC[C@@H](CO)CC5)ncc34)nc2n1CC(F)F` [Compound 1837, (cis-4-((5-(3-(2,2-Difluoroethyl)-2-methyl-3H-imidazo[4,5-b]pyridin-5-yl)pyrrolo[2,1-f][1,2,4]triazin-2-yl)amino)cyclohexyl)methanol] was run?
The EC50 was 6 nM.

With `[2H]C([2H])([2H])O[C@H]1CC[C@@H](Nc2ncc3c(-c4ccc5nc(C)n(CC(F)F)c5n4)ccn3n2)CC1` [Compound 1803, 5-(3-(2,2-Difluoroethyl)-2-methyl-3H-imidazo[4,5-b]pyridin-5-yl)-N-(cis-4-(methoxy-d3)cyclohexyl)pyrrolo[2,1-f][1,2,4]triazin-2-amine] as the compound, how does the EC50 read?
Its EC50 is 3 nM.

How did the EC50 turn out when `CCc1cnc2ncc(-c3ccn4nc(NCC(C)(C)F)ncc34)cn12` [Compound 429, 5-(3-Ethylimidazo[1,2-a]pyrimidin-6-yl)-N-(2-fluoro-2-methylpropyl) pyrrolo[2,1-f] [1,2,4]triazin-2-amine] was run?
Its EC50 is 654 nM.

How did the EC50 turn out when `CCOC(=O)[C@H]1CC[C@@H](Nc2ncc3c(-c4ccc5nc(C)n(CC(F)F)c5n4)ccn3n2)CC1` [Compound 1843, Ethyl cis-4-((5-(3-(2,2-difluoroethyl)-2-methyl-3H-imidazo[4,5-b]pyridin-5-yl)pyrrolo[2,1-f][1,2,4]triazin-2-yl)amino)cyclohexane-1-carboxylate] was run?
Its EC50 is 33 nM.

Which EC50 does the source give for `FC(F)(F)O[C@H]1CC[C@@H](Nc2ncc3c(-c4cnc5ncccc5c4)ccn3n2)CC1` [Compound 1798, 5-(1,8-Naphthyridin-3-yl)-N-(cis-4-(trifluoromethoxy)cyclohexyl)pyrrolo [2,1-f][1,2,4]triazin-2-amine] here?
Its EC50 is 4 nM.

Which EC50 does the source give for `CC(=O)N[C@]1(C)C[C@@H](Nc2ncc3c(-c4ccc5ncccc5c4)ccn3n2)C1` [Compound 1980] here?
The EC50 was 1 nM.

`CO[C@H]1CC[C@H](Nc2ncc3c(-c4cnc5nccn5c4)ccn3n2)CC1` [Compound 260, 5-(Imidazo[1,2-a]pyrimidin-6-yl)-N-(trans-4-methoxycyclohexyl)pyrrolo [2,1-f] [1,2,4]triazin-2-amine] was tested. Which EC50 did it give?
The EC50 was 9 nM.

Which EC50 does the source give for `FC1(F)CC(Nc2ncc3c(-c4cnc5nccn5c4)ccn3n2)C1` [Compound 236, N-(3,3-Difluorocyclobutyl)-5-(imidazo[1,2-a]pyrimidin-6-yl)pyrrolo[2,1-f] [1,2,4]triazin-2-amine] here?
Its EC50 is 9 nM.

`CN1CCC(Nc2ncc3c(-c4cnc5ncccc5c4)ccn3n2)CC1` [Compound 1557, N-(1 -Methylpiperidin-4-yl)-5-(1,8-naphthyridin-3-yl)pyrrolo [2,1-f] [1,2,4] triazin-2-amine] was tested. Which EC50 did it give?
Its EC50 is 18 nM.

Which EC50 does the source give for `CC(F)(F)CNc1ncc2c(-c3ccc4nccn4c3)ccn2n1` [Compound 4, N-(2,2-Difluoropropyl)-5-(imidazo [1,2-a]pyridin-6-yl)pyrrolo[2,1-f][1,2,4] triazin-2-amine] here?
The EC50 was 73 nM.

`C[C@H](Nc1ncc2c(-c3cnc4nccn4c3)ccn2n1)C1CC1` [Compound 230, (S)-N-(1-Cyclopropylethyl)-5-(imidazo[1,2-a]pyrimidin-6-yl)pyrrolo[2,1-f] [1,2,4]triazin-2-amine] was tested. Which EC50 did it give?
The EC50 was 58 nM.

For `C[C@]1(O)CC[C@H](Nc2ncc3c(-c4ccc5nccn5c4)ccn3n2)CC1` [Compound 1828, trans-4-((5-(Imidazo[1,2-a]pyridin-6-yl)pyrrolo[2,1-f][l,2,4]triazin-2-yl)amino) -1-methylcyclohexan-1-ol], which EC50 is on record?
Its EC50 is 10 nM.

`Cc1nc2ccc(-c3ccn4nc(N[C@H]5C[C@@](C)(O)C5)ncc34)nc2n1CC(F)F` [Compound 1819, cis-3-((5-(3-(2,2-Difluoroethyl)-2-methyl-3H-imidazo [4,5-b]pyridin-5-yl)pyrrolo[2,1-f] [1,2,4]triazin-2-yl)amino)-1-methylcyclobutan-1-ol] was tested. Which EC50 did it give?
Its EC50 is 3 nM.

`Cc1nc2ncc(-c3ccn4nc(N[C@H]5CC[C@@](C)(O)CC5)ncc34)nc2n1CC(F)F` [Compound 1974, cis-4-((5-(1-(2,2-difluoroethyl)-2-methyl-1H-imidazo[4,5-b]pyrazin-6-yl)pyrrolo[2,1-f][1,2,4]triazin-2-yl)amino)-1-methylcyclohexan-1-ol] was tested. Which EC50 did it give?
Its EC50 is 2 nM.

How did the EC50 turn out when `c1cn2cc(-c3ccn4nc(NCC5CC5)ncc34)cnc2n1` [Compound 229, N-(Cyclopropylmethyl)-5-(imidazo[1,2-a]pyrimidin-6-yl)pyrrolo[2,1-f] [1,2,4]triazin-2-amine] was run?
Its EC50 is 9 nM.

Which EC50 does the source give for `CC1(CNc2ncc3c(-c4ccc5nccn5c4)ccn3n2)CC1` [Compound 12, 5-(Imidazo[1,2-a]pyridin-6-yl)-N-((1-methylcyclopropyl)methyl)pyrrolo[2,1-f][1,2,4]triazin-2-amine] here?
The EC50 was 45 nM.

Which EC50 does the source give for `Cc1nc2ccc(-c3ccn4nc(N[C@@H]5CCN(CC(C)C)C[C@@H]5F)ncc34)nc2n1CC(F)F` [Compound 1908, 5-(3-(2,2-Difluoroethyl)-2-methyl-3H-imidazo[4,5-b]pyridin-5-yl)-N-((3S,4R)-3-fluoro-1-isobutylpiperidin-4-yl)pyrrolo[2,1-f] [1,2,4]triazin-2-amine] here?
The EC50 was 7 nM.
